Source: patent US20120309734A1, “COMBRETASTATIN DERIVATIVES AND USES THEREFOR” (priority 2009, published 2012)

What was measured:
[1] = tested on: microtubule network of endothelial cells (HUVECs); experiment: Microtubule network immunofluorescence; type: cell-based, human; settings: 50 nM, 16 h
Description: FIG. 9 illustrates the effect of compound 4 in destabilising the microtubule network of endothelial cells. HUVECs (0.6×10^5 cell/chamber), grown on 4-chamber glass slides for 24 h were treated with vehicle (0.5% (v/v) ethanol) or 50 nM compound 4 for 16 h. The cells were then fixed in 100% methanol at −20° C., incubated with a monoclonal anti-α-tubulin antibody (Merck Biosciences, Nottingham, UK), followed by a FITC-conjugated anti-mouse antibody (DakoCytomation, Glostrup, Denmark) and then briefly stained with propidium iodide. The chamber partitions were removed from the slides and anti-quenching solution (2 mg/ml p-phenylenediamine in 50:50 glycerol to PBS solution) was applied to the surface of each slide and coverslips mounted. The organisation of the microtubule network and the cellular DNA was visualised using an Olympus IX81 Fluorescent Microscope (Olympus Corporation, Tokyo, Japan) at a magnification of 600×. The photographs illustrated in FIG. 9 are representative of three independent experiments.

COLO 205 = experiment: NCI60 cell line screen; settings: Homo sapiens
HL-60-BCRP = experiment: Alamar Blue cell viability assay
Description: (§1) Three drug resistant cell lines and respective parental cell lines were assessed. […] Western blot analysis confirmed the overexpression of p-glycoprotein and BCRP in respective cell lines.
(§2) Cells were exposed to multiple concentrations of the indicated compound for 72 h. Cell viability was assessed using the Alamar blue assay and respective IC50 values were calculated. The resistance factor (RF) was calculated by dividing the IC50 of the resistant cell line/IC50 of the parental cell line.
(§3) All cells were cultured in RPMI-1640 Glutamax medium supplemented with 10% FCS media, 100 units/ml penicillin and 100 μg/mIstreptomycin. Cells were maintained at 37° C. in 5% CO2 in a humidified incubator.
(§4) The reduction of Alamar Blue is proportional to the number of viable cells. Cells (200 μl) were plated in triplicate in a 96-well plates (K562, 100,000/ml; HL-60, 300,000/ml; A-2780 50,000/ml). A-2780 cells were plated 24 h prior to treatment. Suspension cells were plated in the log phase of growth and treated immediately. The cells were then treated with either medium alone, vehicle (1% ethanol v/v or 0.1% DMSO v/v) or with a range of concentrations of drug [0.001-10 μM]. After 72 h, Alamar Blue was added to each well (10% of final volume) and fluorescence was read using a 96-well fluorometer with excitation at 530 nm and emission of 590 nm. The blank solution consisted of medium and Alamar Blue and the blank solution was used to calibrate the spectrophotometer to zero absorbance. The relative cell viability (%) related to control wells and was calculated by [A]test/[A]control×100 where [A]test is the absorbance of the drug treated cells and [A]control the absorbance of the vehicle control treated cells. Dose response curves were plotted and IC50 values (concentration of drug resulting in 50% reduction in cell survival) were obtained using the commercial software package Prism (GraphPad Software, Inc., La Jolla, USA). Experiments were performed in triplicate on at least three separate occasions.

PC-3 = experiment: NCI60 cell line screen; settings: Homo sapiens
SF-295 = experiment: NCI60 cell line screen; settings: Homo sapiens
UACC-257 = experiment: NCI60 cell line screen; settings: Homo sapiens
786-0 = experiment: NCI60 cell line screen; settings: Homo sapiens
HUVECs = experiment: In vitro tubule formation on matrigel; type: cell-based, human; settings: 50 nM, 6 h
Description: FIG. 10 depicts the effect of compound 4 on in vitro tubule formation. HUVECs (1.5×10^6 cells/well) were grown on matrigel-coated 6-well plates for 6 h in the presence of vehicle (0.5% (v/v) ethanol) or 50 nM compound 4. […] The pictures shown in FIG. 10 are representative of three independent experiments. HUVECs seeded onto Matrigel in the presence of vehicle (0.5% (v/v) ethanol) underwent alignment into the capillary-like structures.

SK-OV-3 = experiment: NCI60 cell line screen; settings: Homo sapiens
K-562 = experiment: NCI60 cell line screen; settings: Homo sapiens, K562
A2780-parental = experiment: Alamar Blue cell viability assay; type: cell-based; settings: 72 h
Description: as §2
(§5) A2780-parental and A2780-ADR resistant cells were provided by the Beatson Institute of Cancer Research, Glasgow. […] All cells were cultured in RPMI-1640 Glutamax medium supplemented with 10% FCS media, 100 units/ml penicillin and 100 μg/mIstreptomycin. Cells were maintained at 37° C. in 5% CO2 in a humidified incubator.
as §4

UACC-62 = experiment: NCI60 cell line screen; settings: Homo sapiens
CCRF-CEM = experiment: NCI60 cell line screen; settings: Homo sapiens
p-glycoprotein = target: T1, p-glycoprotein (Homo sapiens, UniProt P08183); experiment: Anti-proliferative effects in multi-drug resistant cells, conclusion on efflux; type: cell-based; settings: concluded from resistance factors
T1 construct: HL-60-MDR (overexpress p-glycoprotein); endogenous in cells; host or cells: HL-60-MDR, A2780-ADR
T1 sequence (P08183 whole entry): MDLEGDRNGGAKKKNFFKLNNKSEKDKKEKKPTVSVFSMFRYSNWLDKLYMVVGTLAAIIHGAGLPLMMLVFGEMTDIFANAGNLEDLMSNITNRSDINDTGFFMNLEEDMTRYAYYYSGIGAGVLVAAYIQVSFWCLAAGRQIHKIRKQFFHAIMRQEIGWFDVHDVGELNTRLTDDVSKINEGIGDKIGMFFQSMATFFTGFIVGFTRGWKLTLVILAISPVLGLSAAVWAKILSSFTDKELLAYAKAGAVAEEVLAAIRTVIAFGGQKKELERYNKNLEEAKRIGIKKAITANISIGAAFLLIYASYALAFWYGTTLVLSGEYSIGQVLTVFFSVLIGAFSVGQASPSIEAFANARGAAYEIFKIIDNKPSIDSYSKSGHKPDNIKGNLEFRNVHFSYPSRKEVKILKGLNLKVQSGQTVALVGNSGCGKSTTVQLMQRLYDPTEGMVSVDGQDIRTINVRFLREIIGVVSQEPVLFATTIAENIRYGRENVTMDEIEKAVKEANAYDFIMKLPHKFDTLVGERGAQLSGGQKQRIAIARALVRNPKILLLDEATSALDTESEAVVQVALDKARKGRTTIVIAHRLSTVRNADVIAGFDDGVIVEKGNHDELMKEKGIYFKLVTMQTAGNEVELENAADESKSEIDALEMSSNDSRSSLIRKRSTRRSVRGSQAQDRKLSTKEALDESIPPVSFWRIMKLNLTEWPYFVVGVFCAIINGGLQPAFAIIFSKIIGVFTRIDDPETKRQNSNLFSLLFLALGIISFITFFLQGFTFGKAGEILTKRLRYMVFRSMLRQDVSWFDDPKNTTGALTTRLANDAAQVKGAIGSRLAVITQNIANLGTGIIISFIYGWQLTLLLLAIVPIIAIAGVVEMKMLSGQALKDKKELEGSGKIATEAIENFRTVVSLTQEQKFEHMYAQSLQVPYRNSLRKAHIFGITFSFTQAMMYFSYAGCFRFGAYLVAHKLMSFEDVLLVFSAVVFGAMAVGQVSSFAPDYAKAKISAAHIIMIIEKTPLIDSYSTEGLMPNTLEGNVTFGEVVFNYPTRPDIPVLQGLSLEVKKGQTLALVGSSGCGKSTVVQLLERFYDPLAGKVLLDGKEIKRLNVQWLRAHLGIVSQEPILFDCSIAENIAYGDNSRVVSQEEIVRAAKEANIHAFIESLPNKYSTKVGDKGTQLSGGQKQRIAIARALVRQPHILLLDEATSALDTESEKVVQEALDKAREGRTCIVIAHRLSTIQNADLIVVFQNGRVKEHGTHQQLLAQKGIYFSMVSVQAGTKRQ
Description: as §1, §2

HCT-2998 = experiment: NCI60 cell line screen
SK-MEL-2 = experiment: NCI60 cell line screen; settings: Homo sapiens
SNB-75 = experiment: NCI60 cell line screen; type: cell-based; settings: Homo sapiens, CNS
HL-60 parental = experiment: Alamar Blue cell viability assay; type: cell-based; settings: Homo sapiens, 72 h
Description: as §2, §5, §4

A2780-ADR (PGP) = experiment: Alamar Blue cell viability assay
Description: as §1, §2, §3, §4

SF-268 = experiment: NCI60 cell line screen; settings: Homo sapiens
HCT-15 = experiment: NCI60 cell line screen; settings: Homo sapiens
U251 = experiment: NCI60 cell line screen; settings: Homo sapiens, U-251
OVCAR-8 = experiment: NCI60 cell line screen; settings: Homo sapiens
MDA-MB-231/ATCC = experiment: NCI60 cell line screen; settings: Homo sapiens
MOLT-4 = experiment: NCI60 cell line screen; settings: Homo sapiens
[2] = Stability by HPLC at three pH values; type: physicochemical; settings: for half-life: all pH values (4, 7.4, 9), HPLC; for stability at varying pH: pH 4, 7.4, 9, HPLC
Description: The stability of β-lactam compounds 4, 8 and 12 was assessed by HPLC at three different pH values. […] The half-lives of 8 and 12 were both greater than 24 hours at all pH values. The stability of three ester prodrug derivatives of 4, i.e. 29, 30 and 31, was also assessed (FIG. 6).

HOP-62 = experiment: NCI60 cell line screen; settings: Homo sapiens
MALME-3M = experiment: NCI60 cell line screen; settings: Homo sapiens

Compound | GI50 (COLO 205) | GI50 (PC-3) | GI50 (SF-295) | GI50 (UACC-257) | GI50 (786-0) | GI50 (SK-OV-3) | GI50 (K-562) | GI50 (UACC-62) | GI50 (CCRF-CEM) | GI50 (HCT-2998) | GI50 (SK-MEL-2) | GI50 (SF-268) | GI50 (HCT-15) | GI50 (U251) | GI50 (OVCAR-8) | GI50 (MDA-MB-231/ATCC) | half-life [2] | stability at varying pH [2] | GI50 (HOP-62) | other results
COc1ccc(C2C(c3ccccc3)C(=O)N2c2cc(OC)c(OC)c(OC)c2)cc1O (stereo not shown) [Compound 4, 4-(3-Hydroxy-4-methoxyphenyl)-3-phenyl-1-(3,4,5-trimethoxyphenyl)-azetidin-2-one] | 19 nM | < 10 nM | < 10 nM | 22400 nM | 34 nM | 37 nM | < 10 nM | < 10 nM | < 10 nM | 35 nM | 14 nM | < 10 nM | < 10 nM | < 10 nM | 10 nM | < 10 nM |  |  |  | effect on tubulin cytoskeleton [1]: gross morphological changes in their tubulin cytoskeleton typical of depolymerising agents; IC50 (HL-60-BCRP; Homo sapiens, 72 h): 25.3 nM; RF (HL-60-BCRP; IC50 HL-60-BCRP / IC50 HL-60 parental): 1.4; in vitro tubule formation (HUVECs): prevented spontaneous in vitro tubule formation; IC50 (A2780-parental): 23.3 nM; substrate for the p-glycoprotein (p-glycoprotein): poor substrates for the p-glycoprotein; GI50 (SNB-75): 47 nM; IC50 (HL-60 parental): 17.7 nM; IC50 (A2780-ADR (PGP); A2780 ADR, 72 h): 10.4 nM; RF (A2780-ADR (PGP); IC50 A2780-ADR (PGP) / IC50 A2780-parental): 0.5
COc1ccc(C2C(c3ccccc3)C(=O)N2c2cc(OC)c(OC)c(OC)c2)cc1 (stereo not shown) [Compound 8, 4-(4-Methoxy-phenyl)-3-phenyl-1-(3,4,5-trimethoxy-phenyl)-azetidin-2-one] | 166 nM |  | 35 nM | 27900 nM | 432 nM | 412 nM | 29.1 nM | 40.5 nM | 37.2 nM | 349 nM | > 100000 nM | 354 nM | 170 nM | 95 nM | 125 nM | 200 nM | > 24 h | least stable at acidic pH 4 and relatively stable at pH's 7.4 and 9 | 605 nM | GI50 (MOLT-4): 31.6 nM; GI50 (MALME-3M): > 100000 nM
COc1ccc(C2C(c3cccs3)C(=O)N2c2cc(OC)c(OC)c(OC)c2)cc1 (stereo not shown) [Compound 12, 4-(4-Methoxyphenyl)-3-thiophen-2-yl-1-(3,4,5-trimethoxyphenyl)-azetidin-2-one] | 15 nM | < 10 nM | < 10 nM | 67800 nM | 31 nM | 38 nM |  | < 10 nM | < 10 nM | 30 nM | 7790 nM | 28 nM | 26 nM | 37 nM | < 10 nM | 10 nM | > 24 h | least stable at acidic pH 4 and relatively stable at pH's 7.4 and 9 | 70 nM | 
